Test results: patent US20240016161A1, “HERBICIDAL MENTHA PLANT EXTRACT COMPOSITIONS AND METHODS OF USING SAME” (Harpe Bioherbicide Solutions Inc., priority 2020, published 2024)

Legend:
[1] = test system: Rye; experiment: PRE synergy of weed control in pots/soil; conditions: two weeks after planting, Pendimethalin / Mentha piperata, rate in label
Experimental: (§4) Potted soil. Commercial potting mix is used as a base with approximately 2 inches of 5% organic matter soil used on the top. Seeds are sown in the soil between 1 cm and 2.5 cm (as indicated by best practices for each plant-seed), filtered water added with various broadleaf and grass species to initiate germination. Conducted in the dark at 75/60 F day night temperature with relative humidity at 50%. Seeds are allowed to imbibe water for 24 hours. […] Seeds, wells have water added every two days. Seeds are monitored for 14 days following treatment. Visual rating for germination, radicle, shoot, and root elongation are recorded. Commercial herbicides are also used at the US label recommended rate for treatment as a positive control.

[2] = test system: Timothy; experiment: PRE synergy of weed control in pots/soil; conditions: two weeks after planting, Pendimethalin / Mentha piperata, rate in label
Experimental: as §4

[3] = test system: Rye; experiment: POST synergy treatments in pots; format: in vivo, ryegrass; conditions: POST emergence to 10 cm plants
Experimental: (§1) Potted plants. These assays are conducted in pots using a commercial potting media to establish broadleaf and grass plants with at least one true leaf. The cotyledons are not treated in these assays.

[4] = test system: Timothy; experiment: POST synergy treatments in pots; format: in vivo; conditions: POST emergence to 10 cm plants
Experimental: as §1

[5] = test system: Timothy; experiment: PRE germination synergy in Petri dishes; format: in vivo; conditions: preemergence, Topramezone / Mentha spicata, rate in label
Experimental: (§2) Petri Dish. Seed impacts. Dishes layered with filter paper and filtered water added with various broadleaf and unwanted grass species to initiate germination. Conducted in the dark at 75/60° F. day night temperature with relative humidity at 50%. […] The percent volume/volume of extract to water carrier is summarized above. The amount in mg/ml was calculated based on the percent of extract mixed with water. […] Seeds have water added every two days. […] Plates are exposed to 12/12 hour day/night cycle after 7 days.

[6] = test system: 2-leaf corn; experiment: Disrupting metabolism of herbicide resistant plants in pots; format: in vivo; conditions: POST to 2-leaf corn, Topramezone / Mentha piperata, rate in label
Text: (§3) Testing involves the same methods as listed above but with weeds/plants which are resistant to herbicides. An example plant is corn, which uses a cytochrome P450 enzyme(s) to detoxify certain commercially available herbicides (Ex. mesotrione). Corn also uses a glutathione S-transferase detoxification system for other commercially available herbicides (ex. Atrazine). Still other examples of herbicide detoxification include “Phase I” reactions—dechlorination, hydroxylation, decarboxylation, dealkylation, oxidation/reduction, and hydrolysis are the initial chemical reactions that occur. These reactions detoxify the herbicide and predispose the resultant metabolites to conjugation. “Phase II” reactions are another example, by conjugation with sugars, amino acids or natural plant constituents (metabolites are strongly bound). Also, “Phase II” I reactions are unique to plants and consist of secondary conjugation reactions or the formation of insoluble bound residues. Most crops grown in the world utilize detoxification, mixed function oxidase, enzymes to protect themselves from herbicides and other xenobiotics. Weeds also utilize this system of enzymes, as well as other biochemical actions, to prevent herbicides from damaging or killing the weeds. […]

[7] = test system: Rye; experiment: PRE germination synergy in Petri dishes; format: in vivo, ryegrass; conditions: preemergence, Topramezone / Mentha spicata, rate in label
Experimental: as §2

[8] = test system: Timothy; experiment: Disrupting metabolism of herbicide resistant plants in pots, green loss; format: in vivo; conditions: POST, Topramezone / Mentha piperata, rate in label
Text: as §3

[9] = test system: seedlings; experiment: PRE germination synergy in Petri dishes, bleaching; format: in vivo, ryegrass and Timothy; conditions: preemergence, Topramezone / Mentha spicata, rate in label
Experimental: as §2

[10] = Atrazine / Mentha piperata, rate in label
[11] = Glyphosate / Mentha piperata, 7 days
[12] = Glyphosate / Mentha piperata, 14 days

CCC(CC)Nc1c([N+](=O)[O-])cc(C)c(C)c1[N+](=O)[O-] [Pendi 1x, Pendimethalin]
% control Rye [1]: 37%
% control Rye ([1]; listed as Pendi 2x): 57%
% control Rye ([1]; listed as Pendi 4x): 92%
% control Timothy [2]: 50%
% control Timothy ([2]; listed as Pendi 2x): 75%
% control Timothy ([2]; listed as Pendi 4x): 83%

CCNc1nc(Cl)nc(NC(C)C)n1 [Atrazine 1x alone, Atrazine]
% control Rye [3, 10]: 55%
% control Timothy [4, 10]: 60%

Cc1c(C(=O)c2cnn(C)c2O)ccc(S(C)(=O)=O)c1C1=NOCC1 [Topro 1x alone, Topramezone]
PRE Germination % control Timothy [5]: 60%
% Control 14 Day [6]: 0%
PRE Germination % control Rye [7]: 50%
% Green loss Timothy 14 Day [8]: 5%
% bleaching of seedlings [9]: 50%

O=C(O)CNCP(=O)(O)O [Glyphosate 1x alone, Glyphosate]
% control Rye 7 days [3, 11]: 0%
% control Rye 14 Days [3, 12]: 85%
% control Timothy 7 days [4, 11]: 0%
% control Timothy 14 Days [4, 12]: 90%
